Data taken from the supplement of paper PMC11061612.

Assays:
Trametinib = compound: CC(=O)Nc1cccc(-n2c(=O)n(C3CC3)c(=O)c3c(Nc4ccc(I)cc4F)n(C)c(=O)c(C)c32)c1 [Trametinib]; conditions: max 1 µM
Summary of the method: (§1)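 Cancer cell lines were seeded into 1536-well plates in 7.5 μl medium (DMEM/F12 or RPMI, 10% FBS), held 24 hours at 37°C and 5% CO2, and dosed for 72 hours with final DMSO typically 0.2%. Luminescence from CellTiter-Glo 2.0, scaled between blank-well and DMSO-well means, served as viability. The single-agent IC50 was obtained from dose-response fits with a non-linear mixed effects model, each fit being a two-parameter logistic curve.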

MK-2206 = compound: NC1(c2ccc(-c3nc4ccn5c(=O)[nH]nc5c4cc3-c3ccccc3)cc2)CCC1 [MK-2206]; conditions: max 10 µM
Summary of the method: as §1

AZD7648 = compound: Cc1cc2ncnn2cc1Nc1ncc2c(n1)n(C1CCOCC1)c(=O)n2C [AZD7648]; conditions: max 10 µM
Summary of the method: as §1

[1] = compound: O=C(Nc1ccc2[nH]nc(-c3ccncc3)c2c1)[C@@H]1CCN(CC(=O)N2CCN(c3ccc(-c4ncccn4)cc3)CC2)C1; conditions: max 5 µM
Summary of the method: as §1

AZD5363 = compound: C1CN(CCC1(C(=O)N[C@@H](CCO)C2=CC=C(C=C2)Cl)N)C3=NC=NC4=C3C=CN4 [AZD5363]; conditions: max 10 µM
Summary of the method: as §1

AZD6738 = compound: C[C@@H]1COCCN1C2=NC(=NC(=C2)C3(CC3)[S@](=N)(=O)C)C4=C5C=CNC5=NC=C4 [AZD6738]; conditions: max 10 µM
Summary of the method: as §1

Crizotinib = compound: C[C@@H](Oc1cc(-c2cnn(C3CCNCC3)c2)cnc1N)c1c(Cl)ccc(F)c1Cl [Crizotinib]; conditions: max 10 µM
Summary of the method: as §1

AZD5991 = compound: Cc1c2c(nn1C)CSCc1cc(n(C)n1)CSc1cc(c3ccccc3c1)OCCCc1c(C(=O)O)n(C)c3c-2c(Cl)ccc13 [AZD5991]; conditions: max 1 µM
Summary of the method: as §1

Taselisib = compound: Cc1nc(-c2cn3c(n2)-c2ccc(-c4cnn(C(C)(C)C(N)=O)c4)cc2OCC3)n(C(C)C)n1 [Taselisib]; conditions: max 10 µM
Summary of the method: as §1

Lapatinib = compound: CS(=O)(=O)CCNCc1ccc(-c2ccc3ncnc(Nc4ccc(OCc5cccc(F)c5)c(Cl)c4)c3c2)o1 [Lapatinib]; conditions: max 10 µM
Summary of the method: as §1

SG3199 = compound: CC1=CN2[C@@H](C1)C=NC3=CC(=C(C=C3C2=O)OC)OCCCCCOC4=C(C=C5C(=C4)N=C[C@@H]6CC(=CN6C5=O)C)OC [SG3199]; conditions: max 0.001 µM
Summary of the method: as §1

5-Fluorouracil = compound: O=c1[nH]cc(F)c(=O)[nH]1 [5-Fluorouracil]; conditions: max 20 µM
Summary of the method: as §1

AZD0156 = compound: CN(C)CCCOc1ccc(-c2ccc3ncc4c(c3c2)n(C2CCOCC2)c(=O)n4C)cn1 [AZD0156]; conditions: max 3 µM
Summary of the method: as §1

Olaparib = compound: O=C(c1cc(Cc2n[nH]c(=O)c3ccccc23)ccc1F)N1CCN(C(=O)C2CC2)CC1 [Olaparib]; conditions: max 10 µM
Summary of the method: as §1

Savolitinib = compound: C[C@@H](c1ccc2nccn2c1)n1nnc2ncc(-c3cnn(C)c3)nc21 [Savolitinib]; conditions: max 1 µM
Summary of the method: as §1

Palbociclib = compound: CC(=O)c1c(C)c2cnc(Nc3ccc(N4CCNCC4)cn3)nc2n(C2CCCC2)c1=O [Palbociclib]; conditions: max 10 µM
Summary of the method: as §1

AZD1775 = compound: C=CCn1c(=O)c2cnc(Nc3ccc(N4CCN(C)CC4)cc3)nc2n1-c1cccc(C(C)(C)O)n1 [AZD1775]; conditions: max 3 µM
Summary of the method: as §1

AZD2811 = compound: CCN(CCO)CCCOc1ccc2c(Nc3cc(CC(=O)Nc4cccc(F)c4)[nH]n3)ncnc2c1 [AZD2811]; conditions: max 1 µM
Summary of the method: as §1

Selumetinib = compound: Cn1cnc2c(F)c(Nc3ccc(Br)cc3Cl)c(C(=O)NOCCO)cc21 [Selumetinib]; conditions: max 10 µM
Summary of the method: as §1

Carboplatin = compound: C1CC(C1)(C(=O)[O-])C(=O)[O-].N.N.[Pt+2] [Carboplatin]; conditions: max 10 µM
Summary of the method: as §1

Dasatinib = compound: CC1=C(C(=CC=C1)Cl)NC(=O)C2=CN=C(S2)NC3=CC(=NC(=N3)C)N4CCN(CC4)CCO [Dasatinib]; conditions: max 2 µM
Summary of the method: as §1

AZD4320 = compound: CN(CC[C@H](CSC1=CC=CC=C1)NC2=C(C=C(C=C2)S(=O)(=O)NC(=O)C3=CC=C(C=C3)N4CCC(CC4)[C@H](C5=CC=CC=C5C6=CC=C(C=C6)Cl)O)S(=O)(=O)C(F)(F)F)CCO [AZD4320]; conditions: max 1 µM
Summary of the method: as §1

Prexasertib = compound: COc1cccc(OCCCN)c1-c1cc(Nc2cnc(C#N)cn2)n[nH]1 [Prexasertib]; conditions: max 1 µM
Summary of the method: as §1

SN-38 = compound: CCc1c2c(nc3ccc(O)cc13)-c1cc3c(c(=O)n1C2)COC(=O)[C@]3(O)CC [SN-38]; conditions: max 0.3 µM
Summary of the method: as §1

Gefitinib = compound: COc1cc2ncnc(Nc3ccc(F)c(Cl)c3)c2cc1OCCCN1CCOCC1 [Gefitinib]; conditions: max 10 µM
Summary of the method: as §1

Etoposide = compound: COc1cc([C@@H]2c3cc4c(cc3[C@@H](O[C@@H]3O[C@@H]5CO[C@@H](C)O[C@H]5[C@H](O)[C@H]3O)[C@H]3COC(=O)[C@H]23)OCO4)cc(OC)c1O [Etoposide]; conditions: max 10 µM
Summary of the method: as §1

Doxorubicin = compound: COc1cccc2c1C(=O)c1c(O)c3c(c(O)c1C2=O)C[C@@](O)(C(=O)CO)C[C@@H]3O[C@H]1C[C@H](N)[C@H](O)[C@H](C)O1 [Doxorubicin]; conditions: max 1 µM
Summary of the method: as §1

Venetoclax = compound: CC1(C)CCC(CN2CCN(c3ccc(C(=O)NS(=O)(=O)c4ccc(NCC5CCOCC5)c([N+](=O)[O-])c4)c(Oc4cnc5[nH]ccc5c4)c3)CC2)=C(c2ccc(Cl)cc2)C1 [Venetoclax]; conditions: max 1 µM
Summary of the method: as §1

AZD5153 = compound: COc1nnc2ccc(N3CCC(c4ccc(OCCN5CCN(C)C(=O)[C@H]5C)cc4)CC3)nn12 [AZD5153]; conditions: max 1 µM
Summary of the method: as §1

SRA737 = compound: N#Cc1cnc(Nc2cc(NC[C@H]3CNCCO3)c(C(F)(F)F)cn2)cn1 [SRA737]; conditions: max 10 µM
Summary of the method: as §1

Gemcitabine = compound: Nc1ccn([C@@H]2O[C@H](CO)[C@@H](O)C2(F)F)c(=O)n1 [Gemcitabine]; conditions: max 0.3 µM
Summary of the method: as §1

AZD1390 = compound: CC(C)n1c(=O)n(C)c2cnc3cc(F)c(-c4ccc(OCCCN5CCCCC5)nc4)cc3c21 [AZD1390]; conditions: max 0.3 µM
Summary of the method: as §1

AZD8186 = compound: C[C@@H](Nc1cc(F)cc(F)c1)c1cc(C(=O)N(C)C)cc2c(=O)cc(N3CCOCC3)oc12 [AZD8186]; conditions: max 10 µM
Summary of the method: as §1

Alisertib = compound: COc1cc(Nc2ncc3c(n2)-c2ccc(Cl)cc2C(c2c(F)cccc2OC)=NC3)ccc1C(=O)O [Alisertib]; conditions: max 10 µM
Summary of the method: as §1

Paclitaxel = compound: CC(=O)O[C@H]1C(=O)[C@@]2(C)[C@H]([C@H](OC(=O)c3ccccc3)[C@]3(O)C[C@H](OC(=O)[C@H](O)[C@@H](NC(=O)c4ccccc4)c4ccccc4)C(C)=C1C3(C)C)[C@]1(OC(C)=O)CO[C@@H]1C[C@@H]2O [Paclitaxel]; conditions: max 3 µM
Summary of the method: as §1

Cell Line | IC50, cell viability 72 h (Trametinib) [µM] | IC50, cell viability 72 h (MK-2206) [µM] | IC50, cell viability 72 h (AZD7648) [µM] | IC50, cell viability 72 h [1] [µM] | IC50, cell viability 72 h (AZD5363) [µM] | IC50, cell viability 72 h (AZD6738) [µM] | IC50, cell viability 72 h (Crizotinib) [µM] | IC50, cell viability 72 h (AZD5991) [µM] | IC50, cell viability 72 h (Taselisib) [µM] | IC50, cell viability 72 h (Lapatinib) [µM] | IC50, cell viability 72 h (SG3199) [µM] | IC50, cell viability 72 h (5-Fluorouracil) [µM] | IC50, cell viability 72 h (AZD0156) [µM] | IC50, cell viability 72 h (Olaparib) [µM] | IC50, cell viability 72 h (Savolitinib) [µM] | IC50, cell viability 72 h (Palbociclib) [µM] | IC50, cell viability 72 h (AZD1775) [µM] | IC50, cell viability 72 h (AZD2811) [µM] | IC50, cell viability 72 h (Selumetinib) [µM] | IC50, cell viability 72 h (Carboplatin) [µM] | IC50, cell viability 72 h (Dasatinib) [µM] | IC50, cell viability 72 h (AZD4320) [µM] | IC50, cell viability 72 h (Prexasertib) [µM] | IC50, cell viability 72 h (SN-38) [µM] | IC50, cell viability 72 h (Gefitinib) [µM] | IC50, cell viability 72 h (Etoposide) [µM] | IC50, cell viability 72 h (Doxorubicin) [µM] | IC50, cell viability 72 h (Venetoclax) [µM] | IC50, cell viability 72 h (AZD5153) [µM] | IC50, cell viability 72 h (SRA737) [µM] | IC50, cell viability 72 h (Gemcitabine) [µM] | IC50, cell viability 72 h (AZD1390) [µM] | IC50, cell viability 72 h (AZD8186) [µM] | IC50, cell viability 72 h (Alisertib) [µM] | IC50, cell viability 72 h (Paclitaxel) [µM]
HCC70 (Breast Carcinoma) | > 1 | 1.92 | > 10 | > 5 | 2 | 3 | > 10 | 0.201 | 4.26 | > 10 | > 0.001 | > 20 | > 3 | > 10 | > 1 | > 10 | 1 | 0.224 | > 10 | > 10 | > 2 | > 1 | 0.0297 | > 0.3 | > 10 | > 10 | > 1 | > 1 | > 1 | 5.46 | > 0.3 | > 0.3 | 2.02 | > 10 | 0.143
EW-7 (Ewing's Sarcoma) | > 1 | 5.63 | 9.44 | > 5 | 4.5 | 1.16 | 3.46 | > 1 | 0.155 | > 10 | > 0.001 | > 20 | > 3 | > 10 | > 1 | > 10 | 0.308 | > 1 | > 10 | > 10 | > 2 | 0.943 | 0.00528 | 0.00552 | > 10 | 0.253 | 0.101 | > 1 | > 1 | 0.908 | 0.0047 | > 0.3 | > 10 | 2.15 | 0.0408
